Reference: PMC10728849, “Solubility of Some Drugs in Aqueous Solutions of Choline Chloride-Based Deep Eutectic Solvent Systems: Experimental Data, Modeling, and the Impact of Solution pH” (Iranian Journal of Pharmaceutical Research : IJPR, 2023)
Converted amounts (≈) assume the structure as drawn. Marks after values point to notes of the source that are not given here.

Assays:
[1] = Solubility measurement by shake flask method (UV spectrophotometry); conditions: for solubility at 48 h: 37 °C, thermodynamic from solid, 37 ± 1°C; for SChCl-G50%/ SChCl-G10% / SChCl-U50%/ SChCl-U10%: solubility ratio in DES50% to DES10%; for SChCl-G50%/ SChCl-G10%: ChCl-G; for SChCl-U50%/ SChCl-U10%: ChCl-U
Experimental: A DES composed of ChCl + G/U was selected for this study. It was prepared based on a previously reported method in the literature ([13], [14]). First, the components of DESs, including ChCl as a hydrogen bond acceptor (HBA) and G/U as a hydrogen bond donor (HBD), were weighed using an analytical balance (ATX224, Shimadzu, Japan) with 1×10^-4 g precision at a specific mole fraction of 1:2, respectively. The measured amounts of these compositions were added into a beaker and sealed firmly with Parafilm. Then, it was heated at 70°C while stirring at 550 rpm for 60 minutes until a clear and uniform liquid was formed. At the end of the synthesis process of DES, the prepared liquids were cooled and used as a new class of cosolvents for drug solubilization.
Many different techniques of solubility measurements have been reported in the literature. The shake flask is a popular and convenient method for solubility determination ([21]), which was applied in this study. First, solvent mixtures were made by weighing 10:90% and 50:50% mass fractions of DES: water, respectively. Excess amounts of poorly soluble drugs were added into glass vials containing 4 g prepared solvent mixtures. All of the vials were shaken on a shaker (Heidolph, Schwabach, Germany) and placed in an incubator (Kimia Idea Pardaz Azarbaijan (KIPA) co., Tabriz, Iran) at 37 ± 1°C and 180 rpm for 48 hours. […] The saturated solutions were centrifuged at 6000 rpm for 15 minutes (Tomy Micro One, Tokyo, Japan) and filtered in some cases (Filter Bioscience Membrane Technology Co., 0.22 µm). […] Finally, the absorbance of each solution was converted to concentration using the calibration curves, taking into account the dilution factor. The solubility of each drug was then calculated. Solubilities were determined three times in all cases, and the mean ± standard deviation of data was reported.

[2] = design: method as in doi:10.1016/j.molliq.2018.07.065; conditions: cited from earlier work
[3] = pH of saturated solutions (final pH of dissolution medium); assay type: physicochemical
Excerpt: Acidic and basic compounds can change the pH of the dissolution medium in water.

[4] = cited from earlier work
[5] = aqueous with cosolvent or surfactant or cyclodextrin, Water+ ChCl-G50%, 50:50% mass fraction choline chloride-glycerol (1:2) DES:water
[6] = pH 7.5, aqueous with cosolvent or surfactant or cyclodextrin, Water + ChCl-U10%, 10:90% mass fraction choline chloride-urea (1:2) DES:water
[7] = pH 8.3, aqueous with cosolvent or surfactant or cyclodextrin, Water+ ChCl-U50%, 50:50% mass fraction choline chloride-urea (1:2) DES:water
[8] = aqueous with cosolvent or surfactant or cyclodextrin, Water + ChCl-G10%, 10:90% mass fraction choline chloride-glycerol (1:2) DES:water

Structure (SMILES)	solubility at 48 h [1, 5]	solubility at 48 h [1, 6]	solubility at 48 h [1, 7]	SChCl-G50%/ SChCl-G10% [1]	SChCl-U50%/ SChCl-U10% [1]	Solubility, Water [2]	solubility at 48 h [1, 8]	pH of saturated solution ([3]; in ChCl-U10%)	pH of saturated solution ([3]; in ChCl-U50%)	pH of saturated solution ([3]; in water)	pKa [4]
NC(=O)N1c2ccccc2C=Cc2ccccc21 [Carbamazepine, carbamazepine]	2730 ± 230 µg/mL (≈ 11600 µM)	463 ± 10 µg/mL	3930 ± 344 µg/mL (≈ 16600 µM)	8.54	8.48	0.296 ± 0.0139 ^a g/L	–	–	–	–	–
O=C(O)c1ccccc1 [Benzoic acid, benzoic acid]	–	–	–	1.76	3.16	–	–	–	–	–	–
CC(C)Cc1ccc(C(C)C(=O)O)cc1 (stereo not drawn) [Ibuprofen]	242 ± 4 µg/mL (≈ 1170 µM)	1300 ± 263 µg/mL	3890 ± 622 µg/mL (≈ 18900 µM)	–	–	0.104 ± 0.0035 ^a g/L	141 ± 8 µg/mL	4.5	4.9	6.4	–
O=C(O)c1ccccc1O [Salicylic acid, salicylic acid]	12700 ± 265 µg/mL (≈ 92200 µM)	9840 ± 555 µg/mL	32400 ± 671 µg/mL (≈ 234000 µM)	1.80	3.29	2.755 ± 0.3031 ^a g/L	7060 ± 422 µg/mL	–	–	–	–
CN1CC(=O)N2[C@H](c3ccc4c(c3)OCO4)c3[nH]c4ccccc4c3C[C@@H]2C1=O [Tadalafil, tadalafil]	91 ± 6 µg/mL (≈ 234 µM)	18 ± 2 µg/mL	151 ± 10 µg/mL (≈ 388 µM)	5.25	8.42	0.016 ± 0.0019 ^a g/L	17 ± 2 µg/mL	–	–	–	–
Nc1nnc(-c2cccc(Cl)c2Cl)c(N)n1 [Lamotrigine, lamotrigine]	2285 ± 18 µg/mL (≈ 8920 µM)	482 ± 15 µg/mL	2126 ± 16 µg/mL (≈ 8300 µM)	4.52	4.41	0.342 ± 0.0161 ^a g/L	506 ± 17 µg/mL	–	–	–	–
O=C(O)CO [Glycolic acid]	–	–	–	–	–	–	–	–	–	–	3.6
COc1ccccc1OCCNCC(O)COc1cccc2[nH]c3ccccc3c12 (stereo not drawn) [Carvedilol, carvedilol]	873 ± 27 µg/mL (≈ 2150 µM)	91 ± 7 µg/mL	620 ± 20 µg/mL (≈ 1530 µM)	5.48	6.79	0.032 ± 0.0030 ^a g/L	159 ± 12 µg/mL	–	–	–	–
CC(=O)N1CCN(c2ccc(OCC3COC(Cn4ccnc4)(c4ccc(Cl)cc4Cl)O3)cc2)CC1 (stereo not drawn) [Ketoconazole, ketoconazole]	77 ± 7 µg/mL (≈ 145 µM)	28 ± 1 µg/mL	62 ± 6 µg/mL (≈ 117 µM)	2.16	2.24	0.008 ± 0.0008 ^a g/L	35 ± 1 µg/mL	–	–	–	–
O=C1NC(=O)C(c2ccccc2)(c2ccccc2)N1 [Phenytoin, phenytoin]	255 ± 20 µg/mL (≈ 1010 µM)	104 ± 8 µg/mL	753 ± 60 µg/mL (≈ 2980 µM)	4.24	7.25	0.056 ± 0.0053 ^a g/L	60 ± 5 µg/mL	–	–	–	–
c1ccc2c(c1)Nc1ccccc1S2 [Phenothiazine, phenothiazine]	99 ± 10 µg/mL (≈ 497 µM)	23 ± 0.3 µg/mL	135 ± 15 µg/mL (≈ 677 µM)	18.06	5.83	0.003 ± 0.0004 ^a g/L	5 µg/mL	–	–	–	–
CC(C)NCC(O)COc1ccc(CC(N)=O)cc1 (stereo not drawn) [Atenolol, atenolol]	–	–	–	1.03	1.05	–	–	–	–	–	–
CN1C(C(=O)Nc2ccccn2)=C(O)c2ccccc2S1(=O)=O [Piroxicam, piroxicam]	40 ± 1 µg/mL (≈ 121 µM)	571 ± 35 µg/mL	2070 ± 36 µg/mL (≈ 6250 µM)	1.28	3.63	0.032 ± 0.0014 ^a g/L	32 ± 2 µg/mL	6.1	6.2	5.6	–
